Source: patent US10442807B2, “Aryl substituted bicyclic compounds as herbicides” (FMC Corporation, priority 2015, dated 2019)

Assays:
Assay type in all cases: in vivo
[1] = tested on: wheat (Triticum aestivum); experiment: Test A postemergence application, visual injury rating; settings: approx. 10 d, 0 = no effect, 100 = complete control
Source text: (§1) Seeds of plant species selected from barnyardgrass (Echinochloa crus-galli), kochia (Kochia scoparia), ragweed (common ragweed, Ambrosia elation), ryegrass, Italian (Italian ryegrass, Lolium multiflorum), foxtail, giant (giant foxtail, Setaria faberii), and pigweed (Amaranthus retroflexus), were planted into a blend of loam soil and sand and treated preemergence with a directed soil spray using test chemicals formulated in a non-phytotoxic solvent mixture which included a surfactant. At the same time, plants selected from these weed species and also blackgrass (Alopecurus myosuroides), galium (catchweed bedstraw, Galium aparine), wheat (Triticum aestivum), and corn (Zea mays) were planted in pots containing the same blend of loam soil and sand and treated with postemergence applications of test chemicals formulated in the same manner. Plants ranged in height from 2 to 10 cm and were in the one- to two-leaf stage for the postemergence treatment. Treated plants and untreated controls were maintained in a greenhouse for approximately 10 d, after which time all treated plants were compared to untreated controls and visually evaluated for injury. Plant response ratings, summarized in Table A, are based on a 0 to 100 scale where 0 is no effect and 100 is complete control. A dash (-) response means no test result.

[2] = tested on: ryegrass, Italian (Italian ryegrass, Lolium multiflorum); experiment: as above; settings: approx. 10 d, 0 = no effect, 100 = complete control
Source text: as §1

[3] = tested on: blackgrass (Alopecurus myosuroides); experiment: as above; settings: approx. 10 d, 0 = no effect, 100 = complete control
Source text: as §1

kochia (Kochia scoparia) [4] = experiment: as above; settings: approx. 10 d, 0 = no effect, 100 = complete control
Source text: as §1

[5] = tested on: galium (catchweed bedstraw, Galium aparine); experiment: as above; settings: approx. 10 d, 0 = no effect, 100 = complete control
Source text: as §1

[6] = tested on: ragweed (common ragweed, Ambrosia elation); experiment: as above; settings: approx. 10 d, 0 = no effect, 100 = complete control
Source text: as §1

[7] = tested on: barnyardgrass (Echinochloa crus-galli); experiment: as above; settings: approx. 10 d, 0 = no effect, 100 = complete control
Source text: as §1

[8] = tested on: pigweed (Amaranthus retroflexus); experiment: as above; settings: approx. 10 d, 0 = no effect, 100 = complete control
Source text: as §1

corn (Zea mays) = experiment: as above; settings: approx. 10 d, 0 = no effect, 100 = complete control
Source text: as §1

[9] = tested on: foxtail, giant (giant foxtail, Setaria faberii); experiment: as above; settings: approx. 10 d, 0 = no effect, 100 = complete control
Source text: as §1

[10] = tested on: ducksalad (Heteranthera limosa); experiment: Test B flooded paddy test, visual plant response rating; settings: applied to paddy water at 2-leaf stage, rated after 13 to 15 days, scale 0 to 100, 0 is no effect, 100 is complete control
Source text: (§2) At time of treatment, test pots were flooded to 3 cm above the soil surface, treated by application of test compounds directly to the paddy water, and then maintained at that water depth for the duration of the test. Treated plants and controls were maintained in a greenhouse for 13 to 15 days, after which time all species were compared to controls and visually evaluated. Plant response ratings, summarized in Table B, are based on a scale of 0 to 100 where 0 is no effect and 100 is complete control. A dash (-) response means no test result.

rice (Oryza sativa) = experiment: as above; settings: applied to paddy water at 2-leaf stage, rated after 13 to 15 days, scale 0 to 100, 0 is no effect, 100 is complete control
Source text: as §2

[11] = tested on: barnyardgrass (Echinochloa crus-galli); experiment: as above; settings: applied to paddy water at 2-leaf stage, rated after 13 to 15 days, scale 0 to 100, 0 is no effect, 100 is complete control
Source text: as §2

[12] = tested on: sedge, umbrella (small-flower umbrella sedge, Cyperus difformis); experiment: as above; settings: applied to paddy water at 2-leaf stage, rated after 13 to 15 days, scale 0 to 100, 0 is no effect, 100 is complete control
Source text: as §2

[13] = tested on: ryegrass, Italian (Italian ryegrass, Lolium multiflorum); experiment: Test A preemergence, directed soil spray, visual injury rating; settings: approx. 10 d, 0 = no effect, 100 = complete control
Source text: as §1

kochia (Kochia scoparia) [14] = experiment: as above; settings: approx. 10 d, 0 = no effect, 100 = complete control
Source text: as §1

[15] = tested on: ragweed (common ragweed, Ambrosia elation); experiment: as above; settings: approx. 10 d, 0 = no effect, 100 = complete control
Source text: as §1

[16] = tested on: barnyardgrass (Echinochloa crus-galli); experiment: as above; settings: approx. 10 d, 0 = no effect, 100 = complete control
Source text: as §1

[17] = tested on: pigweed (Amaranthus retroflexus); experiment: as above; settings: approx. 10 d, 0 = no effect, 100 = complete control
Source text: as §1

[18] = tested on: foxtail, giant (giant foxtail, Setaria faberii); experiment: as above; settings: approx. 10 d, 0 = no effect, 100 = complete control
Source text: as §1

Compound | Wheat plant response rating (0 to 100 scale) ([1]; 125 g ai/ha) | Wheat plant response rating (0 to 100 scale) ([1]; 500 g ai/ha) | Ryegrass, Italian plant response rating (0 to 100 scale) ([2]; 125 g ai/ha) | Ryegrass, Italian plant response rating (0 to 100 scale) ([2]; 500 g ai/ha) | Blackgrass plant response rating (0 to 100 scale) ([3]; 125 g ai/ha) | Blackgrass plant response rating (0 to 100 scale) ([3]; 500 g ai/ha) | Kochia plant response rating (0 to 100 scale) (kochia (Kochia scoparia) [4]; 125 g ai/ha) | Kochia plant response rating (0 to 100 scale) (kochia (Kochia scoparia) [4]; 500 g ai/ha) | Galium plant response rating (0 to 100 scale) ([5]; 125 g ai/ha) | Galium plant response rating (0 to 100 scale) ([5]; 500 g ai/ha) | Ragweed plant response rating (0 to 100 scale) ([6]; 125 g ai/ha) | Ragweed plant response rating (0 to 100 scale) ([6]; 500 g ai/ha) | Barnyardgrass plant response rating (0 to 100 scale) ([7]; 125 g ai/ha) | Barnyardgrass plant response rating (0 to 100 scale) ([7]; 500 g ai/ha) | Pigweed plant response rating (0 to 100 scale) ([8]; 125 g ai/ha) | Pigweed plant response rating (0 to 100 scale) ([8]; 500 g ai/ha) | Corn plant response rating (0 to 100 scale) (corn (Zea mays); 125 g ai/ha) | Corn plant response rating (0 to 100 scale) (corn (Zea mays); 500 g ai/ha) | Foxtail, Giant plant response rating (0 to 100 scale) ([9]; 125 g ai/ha) | Foxtail, Giant plant response rating (0 to 100 scale) ([9]; 500 g ai/ha) | further results
O=C(Nc1ccccc1F)C1c2nccn2CC1c1cccc(C(F)(F)F)c1 (stereo not drawn) [Compound 4] | 0 | 20 | 0 | 0 | 20 | 40 | 0 | 0 | 0 | 0 | 0 | 0 | 20 | 60 | 0 | 0 | 0 | 0 | 20 | 70 | Plant response rating, Flood, Ducksalad ([10]; 500 g ai/ha): 0; Plant response rating, Flood, Rice (rice (Oryza sativa); 500 g ai/ha): 0; Plant response rating, Flood, Barnyardgrass ([11]; 500 g ai/ha): 0; Plant response rating, Flood, Sedge, Umbrella ([12]; 500 g ai/ha): 0; Ryegrass, Italian plant response rating (0 to 100 scale) ([13]; 125 g ai/ha): 0; Ryegrass, Italian plant response rating (0 to 100 scale) ([13]; 500 g ai/ha): 0; Kochia plant response rating (0 to 100 scale) (kochia (Kochia scoparia) [14]; 125 g ai/ha): 0; Kochia plant response rating (0 to 100 scale) (kochia (Kochia scoparia) [14]; 500 g ai/ha): 0; Ragweed plant response rating (0 to 100 scale) ([15]; 125 g ai/ha): 0; Ragweed plant response rating (0 to 100 scale) ([15]; 500 g ai/ha): 0; Barnyardgrass plant response rating (0 to 100 scale) ([16]; 125 g ai/ha): 20; Barnyardgrass plant response rating (0 to 100 scale) ([16]; 500 g ai/ha): 90; Pigweed plant response rating (0 to 100 scale) ([17]; 125 g ai/ha): 0; Pigweed plant response rating (0 to 100 scale) ([17]; 500 g ai/ha): 0; Foxtail, Giant plant response rating (0 to 100 scale) ([18]; 125 g ai/ha): 60; Foxtail, Giant plant response rating (0 to 100 scale) ([18]; 500 g ai/ha): 90
Cc1nnc2n1CC(c1ccc(Cl)cc1)C2C(=O)Nc1cccc(F)c1F (stereo not drawn) [Compound 5] | 0 | 20 | 0 | 20 | 0 | 20 | 0 | 30 | 40 | 70 | 0 | 20 | 20 | 80 | 0 | 20 | 20 | 30 | 30 | 80 | Plant response rating, Flood, Ducksalad ([10]; 250 g ai/ha): 20; Plant response rating, Flood, Rice (rice (Oryza sativa); 250 g ai/ha): 0; Plant response rating, Flood, Barnyardgrass ([11]; 250 g ai/ha): 40; Plant response rating, Flood, Sedge, Umbrella ([12]; 250 g ai/ha): 0; Ryegrass, Italian plant response rating (0 to 100 scale) ([13]; 125 g ai/ha): 20; Ryegrass, Italian plant response rating (0 to 100 scale) ([13]; 500 g ai/ha): 30; Kochia plant response rating (0 to 100 scale) (kochia (Kochia scoparia) [14]; 125 g ai/ha): 0; Kochia plant response rating (0 to 100 scale) (kochia (Kochia scoparia) [14]; 500 g ai/ha): 50; Ragweed plant response rating (0 to 100 scale) ([15]; 125 g ai/ha): 0; Ragweed plant response rating (0 to 100 scale) ([15]; 500 g ai/ha): 40; Barnyardgrass plant response rating (0 to 100 scale) ([16]; 125 g ai/ha): 30; Barnyardgrass plant response rating (0 to 100 scale) ([16]; 500 g ai/ha): 80; Pigweed plant response rating (0 to 100 scale) ([17]; 125 g ai/ha): 0; Pigweed plant response rating (0 to 100 scale) ([17]; 500 g ai/ha): 0; Foxtail, Giant plant response rating (0 to 100 scale) ([18]; 125 g ai/ha): 50; Foxtail, Giant plant response rating (0 to 100 scale) ([18]; 500 g ai/ha): 90
Cc1nnc2n1CC(c1ccc(C(F)(F)F)cc1)C2C(=O)Nc1ccccc1C(F)(F)F (stereo not drawn) [Compound 6] | 0 | 0 | 0 | 20 | 0 | 20 | 0 | 0 | 0 | 30 | 0 | 0 | 0 | 40 | 0 | 0 | 0 | 0 | 0 | 30 | Plant response rating, Flood, Ducksalad ([10]; 250 g ai/ha): 0; Plant response rating, Flood, Rice (rice (Oryza sativa); 250 g ai/ha): 0; Plant response rating, Flood, Barnyardgrass ([11]; 250 g ai/ha): 0; Plant response rating, Flood, Sedge, Umbrella ([12]; 250 g ai/ha): 0; Ryegrass, Italian plant response rating (0 to 100 scale) ([13]; 125 g ai/ha): 40; Ryegrass, Italian plant response rating (0 to 100 scale) ([13]; 500 g ai/ha): 60; Kochia plant response rating (0 to 100 scale) (kochia (Kochia scoparia) [14]; 125 g ai/ha): 0; Kochia plant response rating (0 to 100 scale) (kochia (Kochia scoparia) [14]; 500 g ai/ha): 0; Ragweed plant response rating (0 to 100 scale) ([15]; 125 g ai/ha): 0; Ragweed plant response rating (0 to 100 scale) ([15]; 500 g ai/ha): 0; Barnyardgrass plant response rating (0 to 100 scale) ([16]; 125 g ai/ha): 0; Barnyardgrass plant response rating (0 to 100 scale) ([16]; 500 g ai/ha): 40; Pigweed plant response rating (0 to 100 scale) ([17]; 125 g ai/ha): 0; Pigweed plant response rating (0 to 100 scale) ([17]; 500 g ai/ha): 40; Foxtail, Giant plant response rating (0 to 100 scale) ([18]; 125 g ai/ha): 0; Foxtail, Giant plant response rating (0 to 100 scale) ([18]; 500 g ai/ha): 90
